According to US6784153B1, “Methods of homing molecules to lung using membrane dipeptidase” (The Burnham Institute, priority 1998, dated 2004):
“Also recorded” adds a separate entry of the source.

Legend:
lung = experiment: in vivo homing of phage displaying peptides to lung; parameters: species or system mice; conditions: for homing of lung homing phage to control kidney or brain: control organs
Protocol: For lung and pancreas, a mixture of phage libraries containing 10^10 TU was diluted in 200 μl DMEM and injected into the tail vein of anesthetized BALB/c mice (2 month old; Harlan Sprague Dawley; San Diego Calif.); AVERTIN (0.017 ml/g) was used as anesthetic (Pasqualini and Ruoslahti, supra, 1996). After 1-4 minutes, mice were snap frozen in liquid nitrogen or, after about 5 minutes of phage circulation, the mice were perfused through the heart with 5-10 ml of DMEM (SIGMA; St. Louis Mo.). To recover the phage, the organs from the perfused mice or partially thawed organs from snap frozen mice were collected and weighed, then were homogenized in 1 ml DMEM-PI (DMEM containing protease inhibitors (PI); phenylmethyl sulfonyl fluoride (PMSF; 1 mM), aprotinin (20 μg/ml), leupeptin (1 μg/ml)).
Organ samples were washed 3 times with ice cold DMEM-PI containing 1% bovine serum albumin (BSA), then directly incubated with 1 ml K91-kan bacteria for 1 hr. Ten ml NZY medium containing 0.2 μg/ml tetracycline (NZY/tet) was added to the bacterial culture, the mixture was incubated in a 37° C. shaker for 1 hr, then 200 μl aliquots were plated in agar plates containing 40 μg/ml tetracycline (tet/agar).
Approximately 250 to 300 individual bacterial colonies containing phage recovered from the various organs or tissues were grown for 16 hr in 5 ml NZY/tet. In some experiments, approximately 1000 individual bacteria containing phage were picked and the phage were amplified in 2 ml of NZY/tet or the entire plate containing phage was scraped, pooled and grown in bulk and processed for injection. Where phage were cultured separately, the cultures were pooled and the phage were injected into mice or rats as described above for a second round of in vivo panning. In some experiments, a third or fourth round of panning was performed. Phage DNA was purified from individual bacterial colonies obtained and the DNA sequences encoding the peptides expressed by selected phage were determined (see Koivunen et al., supra, 1994b).
After two or three rounds of in vivo panning of mice injected with a cyclic CX3CX3CX3C (SEQ ID NO: 25) or a cyclic CX6C (SEQ ID NO: 26) phage display library, four peptides that homed to lung were identified.
To determine the specificity of lung homing of the individual peptides identified, phage displaying the peptides were amplified individually, diluted to the same input titer and administered to mice. Following administration, control kidney and brain organ was removed and the number of TU of phage in lung, kidney and brain was determined. The results shown in FIG. 2 reveal that 10× and 35× more phage having the peptide sequence CGFECVRQCPERC (SEQ ID NO: 1; GFE-1) bound to lung than to kidney and brain, respectively. […] The lung homing peptides CGFECVRQCPERC (SEQ ID NO: 1; GFE-1), CGFELETC (SEQ ID NO: 2; GFE-2), CTLRDRNC (SEQ ID NO: 15) and CIGEVEVC (SEQ ID NO: 16) are enriched in lung at 35×, 9×, 6× and 5×, respectively, over unselected phage (see FIG. 2).

mouse B16 = experiment: experimental lung metastasis of B16 melanoma cells; assay type: in vivo, mice; conditions: mouse B16 melanoma cell line
Source text: As disclosed herein, selective homing of GFE-1 (SEQ ID NO: 1) to lung endothelium in vivo is mediated by the cell surface protease, MDP.

[1] = individually amplified phage, FIG. 2

For CGFECVRQCPERC [lung homing peptide], the “% OF MOTIF AMONG ALL CLONES” value (lung; LUNG) was 40%, the “LUNG/BRAIN RATIO” value (lung; LUNG section) was 60 and the “homing of lung homing phage to control kidney or brain” value (lung) was “few phage detected in kidney or brain; also recorded: no selective homing to kidney or brain was detected”. The “homing of lung homing phage to control kidney or brain” value (lung; listed as GFE-1) was “no specific phage homing to kidney was detected”, the “enriched in lung over unselected phage” value (lung; [1]) was 35 × and the “phage bound to lung than to brain” value (lung; [1]) was 35 ×. For the same sequence, the “phage bound to lung than to kidney” value (lung; [1]) was 10 × and the experimental lung metastasis (mouse B16) was “inhibit experimental lung metastasis”.
